# From PubChem BioAssay (NCI)
# Values joined by “and” are separate entries in the source; they are usually repeats but may differ in a detail not shown here. Equal values may be shown once.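 Five compound concentrations were applied to cells in 96-well plates for 48 hours; endpoints were derived by simple linear interpolation of the resulting dose-response curve. GI50 = concentration required for 50% inhibition of growth. Definition used: TGI = concentration required for complete inhibition of growth.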
# Columns and labels:
# Assay in all cases: growth of human tumour cells (NCI), 48 h
# BT-549 breast = system: BT-549 breast
# DU-145 prostate = system: DU-145 prostate
# HS 578T breast = system: HS 578T breast
# MCF7 breast = system: MCF7 breast
# MDA-MB-231 breast = system: MDA-MB-231 breast
# PC-3 prostate = system: PC-3 prostate
# DMS 273 small cell lung = system: DMS 273 small cell lung
# KM20L2 colon = system: KM20L2 colon
# M19-MEL melanoma = system: M19-MEL melanoma
# SNB-78 CNS = system: SNB-78 CNS
Structure (SMILES),GI50 (BT-549 breast),TGI (BT-549 breast),GI50 (DU-145 prostate),TGI (DU-145 prostate),GI50 (HS 578T breast),TGI (HS 578T breast),GI50 (MCF7 breast),TGI (MCF7 breast),GI50 (MDA-MB-231 breast),TGI (MDA-MB-231 breast),GI50 (PC-3 prostate),TGI (PC-3 prostate),TGI (DMS 273 small cell lung) [µM],TGI (KM20L2 colon) [µM],TGI (M19-MEL melanoma) [µM],TGI (SNB-78 CNS) [µM]
COC(=O)/C=C/c1cc(OC(C)=O)c2c(c1)C(C(=O)OC)C(c1ccc(OC(C)=O)c(OC(C)=O)c1)O2 (configuration not stated),0.127 µM,2.27 µM,0.131 µM,> 100 µM,0.0521 µM,68.2 µM,0.0353 µM,48.6 µM,0.442 µM,> 21.3 µM,0.371 µM,> 49 µM,,,,
COc1cc2c3c(n(C)c(=O)c2cc1OC)-c1cc2c(cc1C3=O)OCO2,,> 100 µM,,> 100 µM,,> 100 µM,,> 100 µM,,> 100 µM,,> 100 µM,,,,
CNc1cc2oc(=O)cc(C)c2cc1C,,> 100 µM,,> 100 µM,,> 100 µM,,> 100 µM,,> 100 µM,,> 100 µM,,,,
COc1ccc(-c2c(C#N)c(N3CCOCC3)nc3[nH]c(=S)[nH]c(=S)c23)cc1OC,32.2 µM,> 100 µM,58.7 µM,> 100 µM,47.3 µM,> 100 µM,29.4 µM,> 100 µM,13.9 µM,77.1 µM,40.3 µM,> 100 µM,,,,
CCCCCCn1c(-c2ccc(C(=O)O/N=C(\N)c3ccc4c(c3)OCO4)cc2)nc(-c2ccccc2)c1-c1ccccc1,2.02 µM,5.41 µM,1.33 µM,2.66 µM,1.64 µM,3.95 µM,1.58 µM,3.5 µM,2.41 µM,6.72 µM,2.62 µM,11.3 µM,,,,
CO[C@@H]1CC[C@]2(C)OC[C@H](C)[C@@H]3C[C@@H](C)[C@@H](OC(C)=O)[C@@H]4[C@H]3[C@@H]2O[C@H]4C[C@@]1(C)O,> 100 µM,> 100 µM,> 100 µM,> 100 µM,> 100 µM,> 100 µM,> 100 µM,> 100 µM,> 100 µM,> 100 µM,,,,,,
NC(=O)c1cc(I)ccc1NC(=O)/C=C/c1ccccc1,2.39 µM,27.5 µM,0.352 µM,2.97 µM,0.364 µM,15.4 µM,0.403 µM,> 42.6 µM,0.769 µM,> 67.2 µM,0.605 µM,> 100 µM,,,,
O=C1c2cccc3cccc(c23)C(=O)N1CCN(CCO)CCO,,,,,,,,,,,,,66.3,56.6,43.8,> 100
C=C(CN(C)Cc1ccccc1)c1ccc(NC(=O)c2ccc(C(=C)CN(C)Cc3ccccc3)cc2)cc1,> 100 µM,> 100 µM,71.6 µM,> 100 µM,40 µM,> 100 µM,59.3 µM,> 100 µM,54.9 µM,> 100 µM,11 µM,23 µM,,,,
CCC(C)(C)n1c(C)nc2c1C(=O)c1ccccc1C2=O,,,,,,,,,,,,,44.6,> 100,31.7,> 100
O=[N+]([O-])c1cccnc1N=Nc1c(O)[nH]c2ccccc12,,25.4 µM,,29.6 µM,,> 100 µM,,20.6 µM,,> 100 µM,,63 µM,,,,
COc1c2occc2c(N)c2ccc(=O)oc12,,> 100 µM,,> 100 µM,,> 100 µM,,> 100 µM,,> 100 µM,,> 100 µM,,,,
O=C(Nc1ncc(Cc2cccc(C(F)(F)F)c2)s1)c1ccc2c(c1)OCCO2,0.449 µM,> 100 µM,0.35 µM,14.8 µM,0.306 µM,> 66.4 µM,0.175 µM,> 100 µM,0.445 µM,29.7 µM,0.341 µM,> 100 µM,,,,
O=C(O)c1ccc(CNCc2ccccc2)cc1,,> 100 µM,,> 100 µM,,> 100 µM,,> 100 µM,,> 100 µM,,> 100 µM,,,,
Cc1cc(C(=O)CSC(=S)SC(C)(C)C)ccc1Cl,,53.1 µM,,> 100 µM,,82.3 µM,,> 100 µM,,36.4 µM,,95.8 µM,,,,
Nc1c(C(=O)Nc2ccccn2)sc2nc3c(cc12)C(=O)CCC3,0.332 µM,> 100 µM,1.98 µM,> 100 µM,0.804 µM,93.7 µM,0.435 µM,> 100 µM,4.54 µM,> 100 µM,1.43 µM,> 100 µM,,,,
COc1c(C)c(OCC=C(C)C)cc(CO)c1CO,,> 100 µM,,> 100 µM,,> 100 µM,,> 100 µM,,> 100 µM,,> 100 µM,,,,
C/C(=N\NC(N)=O)c1sc(-c2nc(C)c(/C(C)=N/NC(N)=O)s2)nc1C,,,,,,,,,,,,,49.6,> 100,> 100,> 100
COc1cc(/C=C2\CCCCC3=C2N=C2SC(C)=CN2C3c2cc(OC)c(OC)c(OC)c2)cc(OC)c1OC (configuration not stated),1.15 µM,> 100 µM,> 100 µM,> 100 µM,16 µM,> 100 µM,22.6 µM,> 100 µM,4.24 µM,> 100 µM,,,,,,
CCn1cc(-c2ccnc3[nH]c(-c4cccc(CN(C)C)c4)cc23)c(-c2ccc(NC(=O)N(C)C)cc2)n1,1.45 µM and 2.3 µM,17.3 µM and > 10 µM,3.63 µM and 1.97 µM,37.8 µM and > 10 µM,1.52 µM and 1.2 µM,9.99 µM and 6.9 µM,0.487 µM and 0.312 µM,19.4 µM and > 10 µM,3.52 µM and 2.95 µM,19.8 µM and > 10 µM,1.46 µM and 3.02 µM,27 µM and > 10 µM,,,,
COc1ccc(CNc2c3ccccc3nc3ccccc23)cc1F,4.88 µM,18.3 µM,3.65 µM,12.4 µM,3.06 µM,11.5 µM,2.11 µM,5.4 µM,3.16 µM,10.7 µM,3.14 µM,12 µM,,,,
N#CC(I)CS(=O)(=O)c1ccccc1 (configuration not stated),18.8 µM,32.9 µM,17.2 µM,31.3 µM,26.5 µM,61.4 µM,16.7 µM,39.9 µM,17.3 µM,33.9 µM,17 µM,32.5 µM,,,,

Structure (SMILES),GI50 (BT-549 breast),TGI (BT-549 breast),GI50 (DU-145 prostate),TGI (DU-145 prostate),GI50 (HS 578T breast),TGI (HS 578T breast),GI50 (MCF7 breast),TGI (MCF7 breast),GI50 (MDA-MB-231 breast),TGI (MDA-MB-231 breast),GI50 (PC-3 prostate),TGI (PC-3 prostate),TGI (DMS 273 small cell lung) [µM],TGI (KM20L2 colon) [µM],TGI (M19-MEL melanoma) [µM],TGI (SNB-78 CNS) [µM]
Cc1nc2sccn2c1-c1nc2sccn2c1/C=C1/C(=O)Nc2ccccc21,1.85 µM,7.27 µM,4.64 µM,21.5 µM,1.96 µM,9.75 µM,1.5 µM,6.51 µM,4.85 µM,23.9 µM,2.32 µM,46.4 µM,,,,
Cc1cccc(NC2=C(Cl)C(=O)c3nc(C)ccc3C2=O)c1,1.41 µM,2.77 µM,1.27 µM,2.55 µM,1.68 µM,4.58 µM,0.656 µM,3.06 µM,0.904 µM,2.42 µM,1.29 µM,4.8 µM,,,,
CCN(Cc1c(F)cccc1OC)c1ccc(CO)c(Cl)c1,17.6 µM,36.9 µM,17.8 µM,> 57.3 µM,19.1 µM,53.4 µM,0.165 µM,16.1 µM,14.5 µM,40.9 µM,17.1 µM,58.4 µM,,,,
O=[N+]([O-])c1ccccc1N=Nc1c(O)[nH]c2c(Cl)cc(Cl)cc12,,30.5 µM,,> 100 µM,,53 µM,,> 100 µM,,> 69.3 µM,,> 100 µM,,,,
CCN(CCNS(C)(=O)=O)c1ccc(N)c(C)c1,10.1 µM,22.2 µM,10.8 µM,22.8 µM,32.9 µM,> 100 µM,4.3 µM,27.2 µM,11.8 µM,25.4 µM,,,,,,
O=c1cccc(C#CC#C[C@@H]2O[C@H]2CO)o1,2 µM,3.73 µM,2.42 µM,5.97 µM,5.18 µM,24.5 µM,0.525 µM,1.36 µM,0.233 µM,0.877 µM,1.82 µM,4.1 µM,,,,
NNc1ncnc2nc[nH]c12,4.22 µM,> 94.3 µM,3.29 µM,67.8 µM,7.71 µM,> 70 µM,3.1 µM,> 100 µM,2.92 µM,31.7 µM,6.07 µM,> 100 µM,,,,
O=c1[nH]c(O)c(C=Nc2ccc(-c3nc4ccccc4o3)cc2)c(=O)[nH]1,> 100 µM,> 100 µM,> 100 µM,> 100 µM,> 100 µM,> 100 µM,,,29.2 µM,> 100 µM,> 100 µM,> 100 µM,,,,
CNc1nc(N)nc(Nc2ccc(I)cc2)c1N=O,,> 100 µM,,> 100 µM,,> 100 µM,,> 100 µM,,> 100 µM,,> 100 µM,,,,
C=CC12CCN(CC1)C(C(O)c1ccnc3ccc(OC)cc13)C2 (configuration not stated),> 100 µM,> 100 µM,> 100 µM,> 100 µM,> 100 µM,> 100 µM,84.3 µM,> 100 µM,> 100 µM,> 100 µM,> 100 µM,> 100 µM,,,,
COc1ccc(Cl)cc1NC(=O)c1ccc(NC2=C(Cl)C(=O)N(Cc3ccccc3)C2=O)cc1,28.7 µM,> 100 µM,> 100 µM,> 100 µM,37.1 µM,> 100 µM,5.92 µM,34.3 µM,26.2 µM,> 100 µM,52.6 µM,> 100 µM,,,,
CSC[C@H](NC(=O)COc1cccc2cnccc12)C(=O)NC(Cc1ccccc1)C(O)C(=O)N1CSC[C@H]1C(=O)NC(C)(C)C (some centres not stated),,> 100 µM,,> 100 µM,,> 100 µM,,> 100 µM,,> 100 µM,,> 100 µM,,,,
NC(N)=Nc1nc2ccccc2o1,> 100 µM,> 100 µM,> 100 µM,> 100 µM,,,> 100 µM,> 100 µM,> 100 µM,> 100 µM,> 100 µM,> 100 µM,,,,
CCOC(=O)Nc1c(C)nc2ccccn12,> 100 µM,> 100 µM,> 100 µM,> 100 µM,> 100 µM,> 100 µM,> 100 µM,> 100 µM,> 100 µM,> 100 µM,> 100 µM,> 100 µM,,,,
CCSc1nc(N=Cc2ccccc2O)c2cn[nH]c2n1,40.6 µM,> 100 µM,72.1 µM,> 100 µM,20.9 µM,69.2 µM,19.9 µM,59.4 µM,12.7 µM,> 100 µM,28 µM,72.7 µM,,,,
CCOC(=O)c1c(C)c2c(n1Cc1ccccc1)CSCC2=O,21 µM,77.6 µM,21.9 µM,> 100 µM,10.8 µM,53.3 µM,17.7 µM,44.7 µM,14.7 µM,51.2 µM,13.6 µM,68.1 µM,,,,
NCCCn1c2c(c3ccc([N+](=O)[O-])cc3c1=O)C(=O)c1cc(I)ccc1-2,0.931 µM,2.51 µM,< 0.01 µM,0.118 µM,1.98 µM,4.33 µM,< 0.01 µM,0.517 µM,1.8 µM,3.48 µM,0.563 µM,2.07 µM,,,,
COc1cccc2c1O/C(=C\c1ccc([N+](=O)[O-])s1)C2=O,1.68 µM,3.27 µM,> 23.9 µM,> 100 µM,2.99 µM,> 32.1 µM,2.04 µM,> 100 µM,1.25 µM,2.92 µM,1.7 µM,> 21.3 µM,,,,
COC(=O)C1=CN(CC2=CC(=O)C(C)=CC2=O)C=C(C(=O)OC)C1c1ccccc1OC,17.4 µM,41 µM,16.8 µM,31.3 µM,25.9 µM,77.8 µM,24.4 µM,69.8 µM,9.66 µM,28 µM,14.9 µM,29.8 µM,,,,
O=C(Nc1nc(-c2c[nH]c3ccccc23)cs1)c1n[nH]c(=O)c2ccccc12,3.89 µM,> 81.2 µM,3.33 µM,> 31 µM,5.52 µM,55 µM,2.01 µM,> 100 µM,25.7 µM,> 100 µM,10.2 µM,> 100 µM,,,,
CNCCCNc1ccnc2cc(Cl)ccc12,28.3 µM,> 100 µM,17.3 µM,38.5 µM,20.8 µM,78 µM,23.4 µM,83.8 µM,12.7 µM,56.5 µM,17.9 µM,57 µM,,,,
